Test results as given in PubChem BioAssay AID504440 (Sanford-Burnham Center for Chemical Genomics, 2011).
“And” between values parts separate entries of the source, which are not always exact repeats. Identical values can stand only once. The source made the active and inactive calls.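 How the source made its calls: active means mean IC50 below 5 µM in the confirmatory dose response test; inactive means the rest.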

System: AML12 mouse hepatocytes, BODIPY lipid droplet imaging
Assay: blockers of lipid droplet accumulation in AML12 cells – imaging, AML12 mouse hepatocytes, set 2, SAR follow-up (AID 504440)

`COc1ccc(CCNC(=O)c2cc(-c3ccccc3)c(N3CCOCC3)s2)c(OC)c1OC` was tested. Which IC50 did it give?
The IC50 was 88.3 nM.

With `COc1cc(CNC(=O)c2cc3ccsc3n2C)cc(OC)c1OC` as the molecule, how does the IC50 read?
Its IC50 is > 10000 nM (inactive).

How did the IC50 turn out when `O=C(NCCc1ccc2c(c1)OCO2)c1ccc(N2CCOCC2)s1` was run?
Its IC50 is > 10000 nM (inactive).

How did the IC50 turn out when `COc1ccc(CNC(=O)CSc2cc(=O)n(C)c3ccccc23)cc1OC` was run?
Its IC50 is > 10000 nM (inactive).

How did the IC50 turn out when `CCOc1ccc(CCNC(=O)c2nnc(Cc3ccc(F)cc3)o2)cc1OCC` was run?
Its IC50 is 348 nM.

Which IC50 does the source give for `CCn1c(C(=O)NCc2ccc(OC)c(OC)c2)cc2ccsc21` here?
The IC50 was > 10000 nM (inactive).

Which IC50 does the source give for `COc1ccc(CCNC(=O)CSc2cc(=O)n(C)c3ccccc23)cc1OC` here?
The IC50 was > 10000 nM (inactive).

For `CCOc1cc(CCNC(=O)COc2cc(=O)n(C)c3ccccc23)ccc1OC`, which IC50 is on record?
Its IC50 is 8930 nM (inactive).

With `CCn1c(C(=O)Nc2ccc(OC)c(OC)c2)cc2ccsc21` as the molecule, how does the IC50 read?
Its IC50 is > 10000 nM (inactive).

`CCOc1ccc(CCNC(=O)c2cc3ccsc3n2C)cc1OCC` was tested. Which IC50 did it give?
Its IC50 is 138 nM.

With `CCOc1cc(CCNC(=O)c2cc3sccc3[nH]2)ccc1OC` as the molecule, how does the IC50 read?
Its IC50 is 2190 nM.

How did the IC50 turn out when `COc1ccc(CNC(=O)c2cc3ccsc3n2C)cc1OC` was run?
The IC50 was > 10000 nM (inactive).

How did the IC50 turn out when `CCOc1ccc(CCNC(=O)c2cc3sccc3[nH]2)cc1OCC` was run?
The IC50 was 639 nM.

How did the IC50 turn out when `CCn1c(C(=O)NCc2cc(OC)c(OC)c(OC)c2)cc2sccc21` was run?
The IC50 was 4820 nM.

With `CCOc1ccc(CCNC(=O)Cn2cccc2C(=O)c2ccccc2)cc1OCC` as the molecule, how does the IC50 read?
The IC50 was 418 nM.

For `Cn1c(=O)cc(SCC(=O)Nc2ccc3c(c2)OCO3)c2ccccc21`, which IC50 is on record?
Its IC50 is > 10000 nM (inactive).

How did the IC50 turn out when `CCOc1ccc(CCNC(=O)CCc2nnc3ccc(N4CCCC4)nn23)cc1OCC` was run?
The IC50 was 771 nM.

`Cn1c(C(=O)Nc2ccc3c(c2)OCO3)cc2ccsc21` was tested. Which IC50 did it give?
Its IC50 is > 10000 nM (inactive).

With `CCOc1ccc(CCNC(=O)COC(=O)c2cc(OC)c(OC)c(OC)c2)cc1OCC` as the molecule, how does the IC50 read?
The IC50 was 104 nM.

`CCOc1cc(CCNC(=O)c2cc3ccccc3n2C)ccc1OC` was tested. Which IC50 did it give?
The IC50 was 1040 nM.

How did the IC50 turn out when `CCOc1ccc(CCNC(=O)C2CC=CCC2C(=O)OC(C)C)cc1OCC` (stereo not drawn) was run?
The IC50 was 260 nM.

How did the IC50 turn out when `CCOc1cc(CCNC(=O)c2cc3ccsc3n2C)ccc1OC` was run?
The IC50 was 641 nM.

For `CCOc1ccc(CCNC(=O)c2cc3ccsc3n2CC)cc1OC`, which IC50 is on record?
The IC50 was 501 nM.

For `CCOc1cc(CCNC(=O)c2ccc(N3CCOCC3)s2)ccc1OC`, which IC50 is on record?
Its IC50 is 2340 nM.

For `CCOc1ccc(CCNC(=O)c2cc3ccsc3n2CC)cc1OCC`, which IC50 is on record?
Its IC50 is 77.9 nM.

How did the IC50 turn out when `CCOc1ccc(CCNC(=O)c2cc3sc(Cl)cc3n2C)cc1OCC` was run?
The IC50 was 69.7 nM.

How did the IC50 turn out when `CCn1c(C(=O)Nc2ccc3c(c2)OCO3)cc2sccc21` was run?
Its IC50 is > 10000 nM (inactive).

With `COc1ccc(CNC(=O)c2ccc(N3CCOCC3)s2)cc1OC` as the molecule, how does the IC50 read?
Its IC50 is > 10000 nM (inactive).

`CCOc1ccc(CCNC(=O)c2cc3sccc3n2CC)cc1OC` was tested. Which IC50 did it give?
Its IC50 is 261 nM.

For `CCOc1ccc(CCNC(=O)CSc2cc(=O)n(C)c3cc(Cl)ccc23)cc1OCC`, which IC50 is on record?
Its IC50 is 504 nM.

How did the IC50 turn out when `CCOc1ccc(CCNC(=O)c2cc3sccc3n2C)cc1OCC` was run?
The IC50 was 124 nM.

Which IC50 does the source give for `COc1ccc(CCNC(=O)c2cc(-c3ccccc3)c(N3CCOCC3)s2)cc1OC` here?
The IC50 was 271 nM and 186 nM.

How did the IC50 turn out when `COc1ccc(NC(=O)c2cc3ccsc3n2C)cc1OC` was run?
Its IC50 is > 10000 nM (inactive).

With `CCOc1cc(CCNC(=O)c2cc(-c3ccccc3)c(N3CCOCC3)s2)ccc1OC` as the molecule, how does the IC50 read?
Its IC50 is 42.8 nM.

Which IC50 does the source give for `CCOc1ccc(CCNC(=O)c2cc3ccsc3n2C)cc1OC` here?
The IC50 was 1090 nM.

How did the IC50 turn out when `CCOc1ccc(CCNC(=O)COC(=O)c2ccc(OC)c(OC)c2OC)cc1OCC` was run?
The IC50 was 37.5 nM.

Which IC50 does the source give for `COc1cc(CNC(=O)CSc2cc(=O)n(C)c3ccccc23)cc(OC)c1OC` here?
The IC50 was > 10000 nM (inactive).

`COc1ccc(CCNC(=O)c2cc3sccc3n2C)cc1OC` was tested. Which IC50 did it give?
The IC50 was 8370 nM (inactive).

Which IC50 does the source give for `COc1ccc(CCNC(=O)c2cc3ccccc3n2C)cc1OC` here?
Its IC50 is > 10000 nM (inactive).

`CCOc1ccc(CCNC(=O)CCC(=O)N2CCSc3ccccc32)cc1OCC` was tested. Which IC50 did it give?
The IC50 was 69.3 nM.

For `CCOc1ccc(CCNC(=O)c2cc3ccccc3n2C)cc1OC`, which IC50 is on record?
The IC50 was 804 nM.

With `CCOc1ccc(CCNC(=O)CN2CCN(Cc3ccccc3C)C2=O)cc1OCC` as the molecule, how does the IC50 read?
The IC50 was 344 nM.

Which IC50 does the source give for `Cn1c(=O)cc(SCC(=O)NCCc2ccc3c(c2)OCO3)c2ccccc21` here?
The IC50 was > 10000 nM (inactive).

For `CCOc1ccc(CCNC(=O)COc2cc(=O)n(C)c3ccccc23)cc1OCC`, which IC50 is on record?
The IC50 was 945 nM.

How did the IC50 turn out when `CCOc1ccc(CCNC(=O)CCC(=O)N2CCOc3ccccc32)cc1OCC` was run?
The IC50 was 199 nM.

How did the IC50 turn out when `CCn1c(C(=O)NCc2ccc3c(c2)OCO3)cc2sccc21` was run?
The IC50 was > 10000 nM (inactive).

For `CCOc1ccc(CCNC(=O)CSc2cc(=O)n(CC)c3ccccc23)cc1OCC`, which IC50 is on record?
The IC50 was 987 nM.

How did the IC50 turn out when `CCOc1ccc(CCNC(=O)CCc2nc(-c3ccc(OC)cc3)no2)cc1OCC` was run?
The IC50 was 206 nM.

Which IC50 does the source give for `COc1ccc(CCNC(=O)c2cc3sc(Cl)cc3n2C)cc1OC` here?
Its IC50 is 7020 nM (inactive).

`CCOc1ccc(CCNC(=O)CN2C(=O)c3cccnc3Oc3ccc(C)cc32)cc1OCC` was tested. Which IC50 did it give?
Its IC50 is 130 nM.

For `Cn1c(C(=O)NCCc2ccc3c(c2)OCO3)cc2ccccc21`, which IC50 is on record?
Its IC50 is > 10000 nM (inactive).

Which IC50 does the source give for `CCOc1ccc(CCNC(=O)c2ccc(N3CCOCC3)s2)cc1OCC` here?
Its IC50 is 384 nM.

Which IC50 does the source give for `CCn1c(C(=O)NCCc2ccc(OC)c(OC)c2)cc2sc(Cl)cc21` here?
The IC50 was 1350 nM.

For `CCOc1ccc(CCNC(=O)COC(=O)c2cc(OC)cc(OC)c2)cc1OCC`, which IC50 is on record?
Its IC50 is 1090 nM.

`COc1ccc(CNC(=O)c2cc(-c3ccccc3)c(N3CCOCC3)s2)cc1OC` was tested. Which IC50 did it give?
The IC50 was 101 nM.

With `O=C(NCCc1ccc2c(c1)OCO2)c1cc(-c2ccccc2)c(N2CCOCC2)s1` as the molecule, how does the IC50 read?
The IC50 was 3260 nM.

How did the IC50 turn out when `Cn1c(C(=O)NCc2ccc3c(c2)OCO3)cc2ccsc21` was run?
The IC50 was > 10000 nM (inactive).

For `CCOc1ccc(CCNC(=O)CSc2cc(=O)n(C)c3ccccc23)cc1OC`, which IC50 is on record?
The IC50 was 3030 nM.

`O=C(NCCc1ccc2c(c1)OCO2)c1cc2sccc2[nH]1` was tested. Which IC50 did it give?
Its IC50 is > 10000 nM (inactive).

For `CCOc1ccc(CCNC(=O)c2cc3sccc3n2CC)cc1OCC`, which IC50 is on record?
Its IC50 is 39.9 nM.

For `COc1ccc(CCNC(=O)COC(=O)c2cc(OC)c(OC)cc2OC)cc1OC`, which IC50 is on record?
The IC50 was > 10000 nM (inactive).

Which IC50 does the source give for `CCOc1ccc(CCNC(=O)Cn2ncn3nc(-c4ccc(OC)cc4)cc3c2=O)cc1OCC` here?
The IC50 was 129 nM.

`CCn1c(C(=O)NCc2cc(OC)c(OC)c(OC)c2)cc2ccsc21` was tested. Which IC50 did it give?
Its IC50 is 3020 nM.

Which IC50 does the source give for `CCOc1ccc(CCNC(=O)CCc2nnc3ccc(N4CCCCC4)nn23)cc1OCC` here?
Its IC50 is 199 nM.

With `CCOc1ccc(CCNC(=O)Cn2cccc2C(=O)c2ccccc2C)cc1OCC` as the molecule, how does the IC50 read?
Its IC50 is 349 nM.

Which IC50 does the source give for `Cn1c(=O)cc(SCC(=O)NCc2ccc3c(c2)OCO3)c2ccccc21` here?
The IC50 was > 10000 nM (inactive).

For `CCn1c(C(=O)NCCc2ccc(OC)c(OC)c2)cc2ccsc21`, which IC50 is on record?
The IC50 was 2150 nM.

For `CCOc1ccc(CCNC(=O)c2cc(-c3ccccc3)c(N3CCOCC3)s2)cc1OC`, which IC50 is on record?
Its IC50 is 21.6 nM.

Which IC50 does the source give for `CCOc1cc(CCNC(=O)CSc2cc(=O)n(C)c3ccccc23)ccc1OC` here?
The IC50 was 6380 nM (inactive).

For `CCn1c(C(=O)Nc2ccc3c(c2)OCO3)cc2ccsc21`, which IC50 is on record?
Its IC50 is > 10000 nM (inactive).

For `CCOc1cc(CCNC(=O)c2cc3sccc3n2CC)ccc1OC`, which IC50 is on record?
Its IC50 is 63 nM.

With `CCn1c(C(=O)Nc2ccc(OC)c(OC)c2)cc2sccc21` as the molecule, how does the IC50 read?
The IC50 was > 10000 nM (inactive).

`CCOc1ccc(CCNC(=O)CCOc2cc(C)ccc2C)cc1OCC` was tested. Which IC50 did it give?
The IC50 was 67.8 nM.

How did the IC50 turn out when `CCOc1ccc(CCNC(=O)Cn2nc(C)c3c(C)n(-c4ccccc4)nc3c2=O)cc1OCC` was run?
The IC50 was 187 nM.

How did the IC50 turn out when `CCOc1ccc(CCNC(=O)CCC(=O)N2CCOc3ccc(C)cc32)cc1OCC` was run?
Its IC50 is 235 nM.

With `CCOc1ccc(CCNC(=O)c2cc(-c3ccccc3)c(N3CCOCC3)s2)cc1OCC` as the molecule, how does the IC50 read?
Its IC50 is 6.1 nM and 6.39 nM.

Which IC50 does the source give for `CCOc1ccc(CCNC(=O)CSc2cc(=O)n(C)c3ccccc23)cc1OCC` here?
The IC50 was 564 nM and 526 nM.

How did the IC50 turn out when `COc1ccc(CCNC(=O)Cn2cccc2C(=O)c2ccccc2C)cc1OC` was run?
The IC50 was > 10000 nM (inactive).
